This note sets out measurements from patent US7482456B2, “8-(3-Biaryl)phenylquinoline phosphodiesterase-4 inhibitors” (Merck Frosst Canada, priority 2003, dated 2009).

Molecules are shown by their SMILES.

T1 sequence (P27815 248-886 limits assumed): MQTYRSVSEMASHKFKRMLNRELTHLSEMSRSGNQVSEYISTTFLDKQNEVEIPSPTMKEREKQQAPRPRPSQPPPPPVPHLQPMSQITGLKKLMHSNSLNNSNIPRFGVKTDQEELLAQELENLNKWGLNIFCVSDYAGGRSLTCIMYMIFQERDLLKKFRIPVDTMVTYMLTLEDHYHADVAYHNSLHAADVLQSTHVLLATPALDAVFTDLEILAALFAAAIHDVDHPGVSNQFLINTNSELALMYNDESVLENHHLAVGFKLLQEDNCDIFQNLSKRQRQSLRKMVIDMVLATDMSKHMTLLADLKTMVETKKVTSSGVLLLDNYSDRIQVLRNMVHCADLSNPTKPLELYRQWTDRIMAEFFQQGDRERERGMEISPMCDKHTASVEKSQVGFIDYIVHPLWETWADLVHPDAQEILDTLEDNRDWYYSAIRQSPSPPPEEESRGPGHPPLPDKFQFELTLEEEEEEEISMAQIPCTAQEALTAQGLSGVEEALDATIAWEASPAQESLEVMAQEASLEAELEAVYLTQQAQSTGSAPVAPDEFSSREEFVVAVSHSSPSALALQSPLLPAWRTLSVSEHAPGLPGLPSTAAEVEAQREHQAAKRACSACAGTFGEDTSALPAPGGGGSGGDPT

This test addresses T1, human recombinant phosphodiesterase IVa (met-248) (Homo sapiens, UniProt P27815).
T1 construct: human recombinant phosphodiesterase IVa (met-248); made in house; host or cells: baculovirus/Sf-9
Description: SPA based PDE activity assay. The settings on record: 100 nM cAMP; purified GST fusion protein of human recombinant PDE IVa (met-248), baculovirus/Sf-9. It is filed as biochemical. The method, then: Compounds which inhibit the hydrolysis of cAMP to AMP by the type-IV cAMP-specific phosphodiesterases were screened in a 96-well plate format as follows:
In a 96 well-plate at 30° C. was added the test compound (dissolved in 2 μL DMSO), […] of substrate buffer containing [2,8-^3H] adenosine 3′,5′-cyclic phosphate (cAMP, 100 nM to 50 μM), 10 mM MgCl2, 1 mM EDTA, 50 mM Tris, pH 7.5. The reaction was initiated by the addition of […] of human recombinant PDE4 (the amount was controlled so that ˜10% product was formed in 10 min.). The reaction was stopped after 10 min. by the addition of 1 mg of PDE-SPA beads (Amersham Pharmacia Biotech, Inc., Piscataway, N.J.). The product AMP generated was quantified on a Wallac Microbeta® 96-well plate counter (EG&G Wallac Co., Gaithersburg, Md.). The signal in the absence of enzyme was defined as the background. 100% activity was defined as the signal detected in the presence of enzyme and DMSO with the background subtracted. Percentage of inhibition was calculated accordingly. IC50 value was approximated with a non-linear regression fit using the standard 4-parameter/multiple binding sites equation from a ten point titration.
On to `CC(C)(c1cc(-c2cccc(-c3sc(-c4cccc(Cl)c4)nc3-c3ccc(S(C)(=O)=O)cc3)c2)c2ncccc2c1)S(C)(=O)=O` [Example 1, 8-(3-{2-(3-chlorophenyl)-4-[4-(methylsulfonyl)phenyl]-1,3-thiazol-5-yl}phenyl)-6-[1-methyl-1-(methylsulfonyl)ethyl]quinoline], for which the IC50 is 0.3 nM. Next, `CC(C)(c1cc(-c2cccc(-c3sc(-c4cccc(S(C)(=O)=O)c4)nc3-c3ccc(S(C)(=O)=O)cc3)c2)c2ncccc2c1)S(C)(=O)=O` [Example 41]: 1 nM; `CC(C)(O)c1cccc(-c2nc(-c3ccc(S(C)(=O)=O)cc3)c(-c3cccc(-c4cc(C(C)(C)S(C)(=O)=O)cc5cccnc45)c3)s2)c1` [Example 69, 2-(3-{5-(3-{6-[1-methyl-1-(methylsulfonyl)ethyl]quinolin-8-yl}phenyl)-4-[4-(methylsulfonyl)phenyl]-1,3-thiazol-2-yl}phenyl)propan-2-ol]: 0.6 nM; `CC(C)(O)c1nc(-c2cccc(-c3cc(C(C)(C)S(C)(=O)=O)cc4cccnc34)c2)c(-c2ccc(S(C)(=O)=O)cc2)s1` [Example 78, 2-{4-(3-{6-[1-methyl-1-(methylsulfonyl)ethyl]quinolin-8-yl}phenyl)-5-[4-(methylsulfonyl)phenyl]-1,3-thiazol-2-yl}propan-2-ol]: 0.4 nM. `CC(O)(c1ccc(Cl)cc1)c1nc(-c2cccc(-c3cc(C(C)(C)S(C)(=O)=O)cc4cccnc34)c2)c(-c2ccc(S(C)(=O)=O)cc2)s1` (centres unmarked) [Example 82, 1-(4-chlorophenyl)-1-{4-(3-{6-[1-methyl-1-(methylsulfonyl)ethyl]quinolin-8-yl}phenyl)-5-[4-(methylsulfonyl)phenyl]-1,3-thiazol-2-yl}ethanol]: the IC50 was 3.1 nM. In the case of `CC(C)(O)c1cccc(-c2nc(-c3ccc(F)c(Cl)c3)c(-c3cccc(-c4cc(C(C)(C)S(C)(=O)=O)cc5cccnc45)c3)s2)c1` [Example 88, 2-{3-[4-(3-chloro-4-fluorophenyl)-5-(3-{6-[1-methyl-1-(methylsulfonyl)ethyl]quinolin-8-yl}phenyl)-1,3-thiazol-2-yl]phenyl}propan-2-ol] it was 1.6 nM; in that of `CC(C)(O)c1nc(-c2cccc(-c3cc(C(C)(C)S(C)(=O)=O)cc4cccnc34)c2)c(-c2ccc(Cl)cc2)s1` [Example 94, 2-[5-(4-chlorophenyl)-4-(3-{6-[1-methyl-1-(methylsulfonyl)ethyl]quinolin-8-yl}phenyl)-1,3-thiazol-2-yl]propan-2-ol], 4.3 nM. Next, `Cc1noc(-c2cc(-c3cccc(-c4cc(C(C)(C)S(C)(=O)=O)cc5cccnc45)c3)c[n+]([O-])c2)n1` [Example 100, 6-[1-methyl-1-(methylsulfonyl)ethyl]-8-{3-[5-(3-methyl-1,2,4-oxadiazol-5-yl)-1-oxidopyridin-3-yl]phenyl}quinoline]: 4.1 nM; `Cn1nnc(-c2cc(-c3cccc(-c4cc(C(C)(C)S(C)(=O)=O)cc5cccnc45)c3)c[n+]([O-])c2)n1` [Example 115, 6-[1-methyl-1-(methylsulfonyl)ethyl]-8-{3-[5-(2-methyl-2H-tetraazol-5-yl)-1-oxidopyridin-3-yl]phenyl}quinoline]: 2.2 nM; `CC(C)(O)c1ccc(-c2nc(-c3ccc(S(C)(=O)=O)cc3)c(-c3cccc(-c4cc(C(C)(C)S(C)(=O)=O)cc5cccnc45)c3)s2)cc1` [Example 157, 2-(4-{5-(3-{6-[1-methyl-1-(methylsulfonyl)ethyl]quinolin-8-yl}phenyl)-4-[4-(methylsulfonyl)phenyl]-1,3-thiazol-2-yl}phenyl)propan-2-ol]: 1.7 nM. Next, `CC(C)(O)c1nc(-c2ccc(S(C)(=O)=O)cc2)c(-c2cccc(-c3cc(C(=O)NC4CC4)cc4cccnc34)c2)s1` [Example 167, N-cyclopropyl-8-(3-{2-(1-hydroxy-1-methylethyl)-4-[4-(methylsulfonyl)phenyl]-1,3-thiazol-5-yl}phenyl)quinoline-6-carboxamide]: 0.4 nM.
